Measured values taken from PMC9146423, “Discovery of Nitro-azolo[1,5-a]pyrimidines with Anti-Inflammatory and Protective Activity against LPS-Induced Acute Lung Injury” (Pharmaceuticals, 2022).
Where a name gives a salt, the structure may show the parent alone.

Key:
[1] = test system: LPS-stimulated peritoneal macrophages of C57bl/6j mice; experiment: Cell viability of LPS-stimulated macrophages, MTT test; assay type: cell-based; conditions: 100 μM
Protocol: (§1) Peritoneal macrophages (PM) were isolated from the peritoneal exudate of 30 male C57bl/6j mice. To accumulate PM, 1 mL of 3% peptone solution was injected intraperitoneally. After 3 days, the mice were euthanized by cervical dislocation. Cells of peritoneal exudate were obtained by aseptic washing of the abdominal cavity with 5 mL of sterile Hanks’s solution (+4–6 °C) without calcium and magnesium ions. The total number and viability of cells were assessed in a Goryaev counting chamber (Russia) with a 0.4% trypan blue staining (Sigma-Aldrich, St. Louis, MO, USA). The cell concentration was adjusted to 1.0 × 10^6 cells/mL in DMEM (Gibco) supplemented with 2 mM L-glutamine (Gibco, Waltham, MA, USA), 10% heat-inactivated fetal bovine serum (BioClot, Bavaria, Germany), 100 U/mL penicillin, and […] streptomycin (Gibco) and plated 200 μL/well in 96-well transparent plates (SPL Life Sciences Co., Ltd., Pocheon-si, Korea). After 2 h at 37 °C in a humidified atmosphere with 5% CO2, the wells were washed to remove non-adherent cells. After 24 h of incubation, 20 μL of the supernatants were substituted with 20 μL of solutions of test compounds, followed by E. coli O127:B8 LPS (100 ng/mL final concentration) after 30 min. The experiments were run in 3 independent replicates.
The activity of lactate dehydrogenase (LDH) in a cell culture medium served as a marker of membrane permeability and cell death. Aliquotes of supernatants were taken after 24 h of inoculation with test compounds, mixed with 250 μL of […] NADH solution in 54 mM phosphate-buffered saline (pH 7.5). Then, 25 μL of a 6.48 mM pyruvate solution was added to the mixture. The optical density was followed at a wavelength of 340 nm for 20 min. The MTT-test was performed 24 h after incubations of cells with tested compounds. Briefly, 20 μL of MTT solution was added to each well, incubated at 37 °C in a humidified atmosphere containing 5% CO2 for 4 h. The culture medium was removed, the cells were lysed, and formazan crystals were dissolved in 150 μL DMSO. The plates were shaken at room temperature for 10 min, and the optical density was measured in a microplate reader Infinite M200 PRO (Tecan, Grödig, Austria) at a wavelength of 565 nm.

[2] = test system: LPS-stimulated peritoneal macrophages of C57bl/6j mice; experiment: Inhibition of LPS-induced NO synthesis (nitrite accumulation, Griess reagent) in peritoneal macrophages; assay type: cell-based, mouse; conditions: 100 μM; for Inhibition of NO Synthesis vs. LPS Control / inhibition at 100 µM: m ± SD; for inhibition at 100 µM: Mus musculus, Peritoneal macrophage, 22 h, read-out: Inhibition of NO Synthesis vs. LPS Control
Protocol: as §1
The accumulation of the nitrite anion (a stable end product of NO decomposition produced by iNOS) in supernatants was determined using a standard Griess reagent. Briefly, 50 μL of supernatants were collected 22 h after incubation of PM, and the test and control compounds were mixed with 50 μL of 1% […] in 2.5% H3PO4 and 50 μL of 0.1% N-(1-naphthyl) ethylenediamine in 2.5% H3PO4. After incubation at 23 °C for 10 min in an orbital shaker, the optical density was determined at a wavelength of 550 nm with a microplate reader Infinite M200 PRO (Tecan, Grödig, Austria).

[3] = test system: peritoneal macrophages of C57bl/6j mice; experiment: Yeast phagocytosis assay and macrophage spreading; assay type: cell-based, mouse
Protocol: Next, we evaluated lead compound 9g for immunodepressant activity in parallel with the reference drug dexamethasone. Yeast phagocytosis was assessed by microscopic examination as the number of phagocytes per 100 macrophages and as the number of phagocytosed yeast cells in each phagocyte. Cell viability was assessed as lactate dehydrogenase activity in cell supernatants, which correlates with increased cell membrane permeability.
Peritoneal macrophages of C57bl/6j mice were cultured in a 24-well plate at a volume of 500 μL/well (1 × 10^5 cells/mL) for 24 h. Test compounds or DMSO were added to wells in triplicate followed by 50 μL of 1% yeast suspension, and the plates were incubated for 40 min. After 24 or 72 h, the medium was removed. The cells were fixed with May–Grunwald methanol dye and stained with Azur-Eosin in Romanovsky’s modification for 45 min at room temperature, washed, air-dried, and analyzed using a microscope Mikmed-6 (Russia), equipped with a digital camera. The study was performed in three technical replicates and two series; 100 macrophages were processed in each sample to count the captured yeast cells. Macrophage spreading was assessed as a number of pseudopodia.

[4] = test system: C57BL/6J mice; experiment: LPS-induced acute lung injury in mice; assay type: in vivo, mouse
Protocol: The randomization of C57bl/6j mice into experimental and control groups was based on body weight and behavioral activity assessed in an open field test 24 h before the start of the experiment. The next day, mice were treated with vehicle or test compounds 1 h before intratracheal instillation of LPS solution in sterile saline.
The randomization of C57BL/6J mice was performed by body weight and motor activity in an open field test. Dexamethasone (5 mg/kg) and 9g (30 mg/kg) were administered intraperitoneally in 10 mL/kg sterile saline. The control animals received an equal volume of the vehicle. After 1 h, the mice were anesthetized with isoflurane inhalation until their breathing rate was decreased. The mice were suspended by the front incisors on an inclined surgical table, the tongue was pulled out with narrow curved tweezers, and 1 mg/mL of E. coli O127:B8 LPS (Sigma-Aldrich, St. Louis, MO, USA) in 1 mL/kg sterile saline was injected into the back of the oropharynx. Intact control animals received an equal volume of sterile saline similarly.
The animals were placed in the center of a round open field with an arena of 44 cm diameter and 32 cm wall height under 300 lux lighting. During 5 min of observation, horizontal motor activity, vertical motor activity, time spent in the central part, the number of exits to the central part, and exploratory activity parameters were recorded. Body temperature was determined rectally.
The mice were anesthetized with 500 mg/kg chloral hydrate (Sigma-Aldrich, St. Louis, MO, USA) intraperitoneally 24 h after LPS administration. Blood was taken by intracardiac puncture in test tubes with heparin. The blood samples were centrifuged at 1000 g and 4 °C for 15 min on a 2–16PK centrifuge (Sigma, Germany), and plasma was separated and stored at −80 °C until the assay. Thoracotomy was performed, the ligature was applied to the left bronchus and the trachea was cannulated with a 20 G needle. The right lung was washed twice with 0.7 mL of warm sterile saline. After combining aliquots, the bronchoalveolar lavage (BAL) was centrifuged at 800 g and 4 °C for 10 min. The supernatant was separated and stored at −80 °C until the assay. The residual cell pellet was resuspended in 50 μL of PBS for further study. The left lung was washed in saline and placed in 10% buffered formalin for morphological evaluation.
The total number of leukocytes in heparinized blood was determined after staining with methylene blue in Goryaev’s counting chamber at ×100 magnification. Smears of blood and BAL cell pellets were air-dried, fixed according to May–Grunwald for 3 min, and stained according to Romanowsky–Giemsa. After 30 min, the slides were washed, air-dried, and examined with immersion objective (×1000 total magnification). On each slide, a total of at least 100 cells were calculated.
The concentration of total protein in BAL supernatants was determined spectrophotometrically with the pyrogallol red method, and the protein in the blood plasma was determined with the biuret method using commercial kits (Vital, Saint Petersburg, Russia) and bovine serum albumin as the standard. The lung permeability index was calculated as the protein concentration in the BAL to plasma ratio.
Morphological markers of inflammation in lung tissue were assessed in a semi-quantitative way on paraffin sections stained with hematoxylin and eosin. The sections were examined under a light microscope (Zeiss, Germany) by a double-blind method. The score of inflammation was determined as follows: 0—the presence of single inflammatory cells; 1—weak inflammation, inflammatory cells infiltrate no more than 10% of the lung tissue, including interalveolar cell partitions; 2—moderate inflammation, inflammatory cells infiltrate no more than 50% of the structures of the lung, but the interstitial tissue is identified; 3—severe inflammation, inflammatory cells densely infiltrate more than 50% of the lung tissue and airways.

[5] = 24 h after LPS, dexamethasone 5 mg/kg, 9g 30 mg/kg i.p.

`C[C@@H]1C[C@H]2[C@@H]3CCC4=CC(=O)C=C[C@]4(C)[C@@]3(F)[C@@H](O)C[C@]2(C)[C@@]1(O)C(=O)CO` [Dexamethasone, reference compound] was tested, and the “Cell Viability vs. LPS Control, MTT Test” value ([1]; male, C57bl/6j, mouse, 24 h) was 104.21 ± 2.18%, the “Inhibition of NO Synthesis vs. LPS Control” value [2] was 90.91 ± 5.53 % and the Suppression of phagocytosis ([3]; after 24-h of incubation, data not shown) was “significantly suppressed phagocytosis”. The “Decrease of the mean number of phagocytosed yeast cells” value ([3]; after 72 h of incubation) was 59%, the Blood leukocyte subpopulations ([4]; 24 h after LPS) was “normalized leukocyte subpopulations to the values of intact animals” and the “CD68+ cells in lung tissue, immunostaining” value ([4]; 24 h after LPS) was “rarely detected”. For the same molecule, the “LPS-induced lung lesions, histologic scoring (hemorrhage and neutrophil infiltration)” value ([4]; 24 h after LPS, H&E, semi-quantitative) was “significantly ameliorated”, the “Blood plasma IL-6 level” value [4, 5] was “normalized the blood plasma IL-6 level” and the “Permeability of pulmonary vessels (lung permeability index)” value [4, 5] was “prevent the increase in permeability of pulmonary vessels”. For the same molecule, the “Horizontal motor activity, open field test” value ([4]; 24 h after LPS, dexamethasone 5 mg/kg, 9g 30 mg/kg i.p. 1 h before LPS) was “significant improvement”, the “Segmented neutrophils count in BAL (in words)” value ([4]; 24 h after LPS, monocytes in BAL increased) was “significantly decreased the segmented neutrophils count” and the “Spleen mass and lymphocyte content (markers of immunodepression)” value ([4]; LPS-treated mice, dexamethasone 5 mg/kg, 9g 30 mg/kg i.p.) was “significantly reduced”. For the same molecule, the LPS-induced hypothermia ([4]; body temperature determined rectally) was “attenuated LPS-induced hypothermia”, the “Segmented neutrophils, share of BAL cells” value ([4]; bronchoalveolar lavage 24 h after LPS, dexamethasone 5 mg/kg, 9g 30 mg/kg i.p.) was 22.5% and the “Number of center entries and time in the center, open field test” value ([4]; dexamethasone 5 mg/kg, 9g 30 mg/kg i.p.) was “restored the number of center entries and time in the center to intact levels”.
For `Cc1[nH]c2nc(-c3ccc([N+](=O)[O-])o3)nn2c(=O)c1[N+](=O)[O-]` [Compound 13, 2-(5-Nitrofur-2-yl)-5-methyl-6-nitro-1,2,4-triazolo[1,5-a]pyrimidin-7-one aminoguanidinium salt], the “Cell Viability vs. LPS Control, MTT Test” value ([1]; m ± SD) was 96.97 ± 7.18%, the “Inhibition of nitric oxide synthesis (in words)” value [2] was “comparable to that of the tetrazolopyrimidine series” and the “Inhibition of NO Synthesis vs. LPS Control” value [2] was 58.97 ± 7.07 %.
In the case of `Cc1nc2nnnn2c(NCCO)c1[N+](=O)[O-]` [Compound 9c, 2-[(5-Methyl-6-nitrotetrazolo[1,5-a]pyrimidin-7-yl)-amino]ethanol], the “Cell Viability vs. LPS Control, MTT Test” value ([1]; male, C57bl/6j, mouse, 24 h) is reported as 109.0 ± 2.00% and the inhibition at 100 µM [2] is reported as 54.2 ± 11.5%.
With `Cc1nc2nnnn2c(NCC(O)CO)c1[N+](=O)[O-]` (stereo not shown) [Compound 9e, 3-[(5-Methyl-6-nitrotetrazolo[1,5-a]pyrimidin-7-yl)-amino]propane-1,2-diol] the “Cell Viability vs. LPS Control, MTT Test” value ([1]; male, C57bl/6j, mouse, 24 h) was 94.98 ± 12.48% and the inhibition at 100 µM [2] was 21.5 ± 2.74%.
In the case of `Cc1nc2nnnn2c(NCCc2ccc(Cl)cc2)c1[N+](=O)[O-]` [Compound 9f, N-[2-(4-Chlorophenyl)ethyl]-5-methyl-6-nitrotetrazolo-[1,5-a]pyrimidin-7-amine], the “Cell Viability vs. LPS Control, MTT Test” value ([1]; male, C57bl/6j, mouse, 24 h) is reported as 102.67 ± 6.35% and the inhibition at 100 µM [2] is reported as 35.8 ± 4.45%.
In the case of `C#CCSc1nc2ncc([N+](=O)[O-])c(NCCc3ccc(Cl)cc3)n2n1` [Compound 10f, N-(4-Chlorophenethyl)-6-nitro-2-(prop-2-yn-1-yl-sulfanyl)[1,2,4]triazolo[1,5-a]pyrimidin-7-amine], the “Cell Viability vs. LPS Control, MTT Test” value ([1]; male, C57bl/6j, mouse, 24 h) is reported as 38.37 ± 6.89 % and the inhibition at 100 µM [2] is reported as 50.6 ± 1.27%.
For `Cc1[nH]c2nc(-c3ccc([N+](=O)[O-])o3)nn2c(=O)c1[N+](=O)[O-]` [Compound 14, 2-(5-Nitrofur-2-yl)-5-methyl-6-nitro-1,2,4-triazolo[1,5-a]pyrimidin-7-one guanidinium salt], the “Cell Viability vs. LPS Control, MTT Test” value ([1]; m ± SD) was 111.95 ± 8.67%, the “Inhibition of nitric oxide synthesis (in words)” value [2] was “did not demonstrate inhibition of nitric oxide synthesis” and the “Inhibition of NO Synthesis vs. LPS Control” value [2] was 16.09 ± 5.78%.
`Cc1nc2nnnn2c(NC(C)C)c1[N+](=O)[O-]` [Compound 9a, N-Isopropyl-5-methyl-6-nitrotetrazolo[1,5-a]pyrimidin-7-amine] was tested, and the “Cell Viability vs. LPS Control, MTT Test” value ([1]; male, C57bl/6j, mouse, 24 h) was 73.47 ± 12.07% and the inhibition at 100 µM [2] was 47.7 ± 6.98%.
For `Cc1nc2nnnn2c(NCCCO)c1[N+](=O)[O-]` [Compound 9d, 3-[(5-Methyl-6-nitrotetrazolo[1,5-a]pyrimidin-7-yl)-amino]propanol], the “Cell Viability vs. LPS Control, MTT Test” value ([1]; male, C57bl/6j, mouse, 24 h) was 116.6 ± 8.97% and the inhibition at 100 µM [2] was 40.3 ± 5.14%.
In the case of `C#CCSc1nc2ncc([N+](=O)[O-])c(NCCc3ccc(O)cc3)n2n1` [Compound 10g, 4-{2-[(6-Nitro-2-(prop-2-yn-1-ylsulfanyl)[1,2,4]triazolo[1,5-a]pyrimidin-7-yl)amino]ethyl}phenol], the “Cell Viability vs. LPS Control, MTT Test” value ([1]; male, C57bl/6j, mouse, 24 h) is reported as 30.9 ± 7.7 % and the inhibition at 100 µM [2] is reported as 28.5 ± 3.21%.
With `Cc1nc2nnnn2c(NC(C)(C)C)c1[N+](=O)[O-]` [Compound 9b, N-Tert-Butyl-5-methyl-6-nitrotetrazolo[1,5-a]pyrimidin-7-amine] the “Cell Viability vs. LPS Control, MTT Test” value ([1]; male, C57bl/6j, mouse, 24 h) was 104.9 ± 5.87% and the inhibition at 100 µM [2] was 37 ± 3.25%.
